Like-named read-outs stand apart in the source and are kept apart here. Non-standard residues stand in square brackets, D forms with d. Residues, ends and D or L forms follow the SMILES beside them. Dmt = Cc1cc(O)cc(C)c1C[C@H](N)C(=O)O; Orn = NCCC[C@H](N)C(=O)O
Test system: A549 cells
Assay type: cell-based, human
Details: 24 h
Procedure: Cells were seeded in 96‐well cell culture plates (8000/well) and allowed to grow for 48 h. After washing with PBS, cells were fixed with 50% trichloroacetic acid and stained with SRB for 20 min. Excess SRB was removed, and cells were washed with 1% acetic acid. SRB extraction was done using 100 mM Tris‐base, and absorbance at 510 nm was determined using an Infinite M1000 plate reader (Tecan, Männedorf, Switzerland).
Fig. 7 PSD‐interacting peptides bind to PSD, inhibiting its activity, and when cell‐penetrating and mitochondria‐ or nucleus‐targeted, inhibit cell proliferation. […] (B) Inhibition of PSD activity by the 2F3 (●) or 1C11 (○) peptide. PSD activity was measured using the DSB‐3 method. (C‐E) Cell proliferation inhibition following incubation of A549 cells with the indicated mitochondria‐ or nucleus‐targeted peptides for 24 h in a serum‐free medium, and cell proliferation was assayed using the SRB method. Results are the means ± SEM (n = 3). (F) A549 cells were incubated for 90 min with 5 µM of the mitochondria‐ or nucleus‐targeted FITC‐labelled peptides, immunostained with anti‐SMAC antibodies and with DAPI and visualized by confocal microscope for subcellular localization. (a) and (b) present higher magnification, white arrows point to possible nuclear localization of the peptide, and blue arrows to its colocalization with mitochondria marker (n = 3). Scale bars represent 20, 10 µm as indicated.
Table S4. Effects of peptide identified as interacting with PSD or their interaction with SMAC/Diablo is prevented in the presence of PSD on A549 lung cancer cell growth A549 cells were seeded in 96-well plate (7000 cells/well). After 24 h cells were incubated without or with the indicated peptide concentration for 24 h in a serum-free medium. Then, cells were washed with PBS, and analyzed for cell growth using the SRB method. Results are the mean ± SD (n=3). Peptide sequence, its identification manner, based on interacting with PSD or their interaction with SMAC/Diablo is prevented in the presence of PSD are shown. In addition, the peptides are presented with the cell penetrating peptide targeting to the mitochondria or the nucleus. The results are presented as the concentration required for 50% inhibition (IC50).
No Peptide spot and Protein/Function Peptide and Cellular IC50 […]
ALSTSSPIPSVPQSQ transcriptional coactivator 2 Mitochondria (A) […]
AQPQTGSGAS truncated poly Q, transcriptional H-(D-Arg)–Dmt–Orn–Phe- 2F3 >100 Interacting with PSD coactivator for NOTCH proteins, Mitochondria promotes proliferative signaling R-{D-Arg}-RK- 2F3 28.9±5.2 during neurogenesis (Nucleus). Nucleus […]
PNQSSRAFQGTDHS transcriptional coactivator 2 Mitochondria
SDLAFDFLSQQ truncated poly Q, A transcriptional D-Arg–Dmt–Orn–Phe-2I8 66.8±4.7 Identified by PSD coactivator for NOTCH proteins, Mitochondria preventing SMAC promotes proliferative signaling R-{D-Arg}-RK-2I8 >100 interaction with it during neurogenesis (Nucleus). Nucleus […]
ALLTSGTSDPRARV protease promotes cell death either Mitochondria […]
TYGTPSLWARL by direct binding to IAPs proteins D-Arg–Dmt–Orn–Phe -1C11 89.3±5.49 Interacting with PSD leading to increased caspase Mitochondria activity or caspase-independent and serine protease activity-dependent R-{D-Arg}-RK- 1C11 66.5±3.9 mechanism. (Mitochondrion Nucleus intermembrane space). 1C11- R-{D-Arg}-RK 30.0±3.8 […]
ELYRMSTYSTFPAG Acts as an E3 ubiquitin-protein Mitochondria
VPVSERSLARA ligase, regulator of NF-kappa-B 1E14- D-Arg–Dmt–Orn–Phe >100 Identified by PSD signaling, apoptosis, cell Mitochondria preventing SMAC proliferation, cell invasion and R-{D-Arg}-RK-1E14 >100 interaction with it metastasis, modulates inflammatory Nucleus signaling, (Cytosol, nucleus and […]

[1] = A549 cells, serum‐free medium, SRB, read-out: IC50, cell proliferation inhibition

Row | IC50 [µM] | Compound | IC50 [1] [µM]
1 | > 100 | CSCC[C@H](NC(=O)[C@H](CCCNC(=N)N)NC(=O)[C@H](Cc1ccc(O)cc1)NC(=O)[C@H](CC(C)C)NC(=O)[C@H](CCC(=O)O)NC(=O)[C@H](CCCCN)NC(=O)[C@H](CCCNC(=N)N)NC(=O)[C@@H](CCCNC(=N)N)NC(=O)[C@@H](N)CCCNC(=N)N)C(=O)N[C@@H](CO)C(=O)N[C@H](C(=O)N[C@@H](Cc1ccc(O)cc1)C(=O)N[C@@H](CO)C(=O)N[C@H](C(=O)N[C@@H](Cc1ccccc1)C(=O)N1CCC[C@H]1C(=O)N[C@@H](C)C(=O)NCC(=O)N[C@H](C(=O)N1CCC[C@H]1C(=O)N[C@H](C(=O)N[C@@H](CO)C(=O)N[C@@H](CCC(=O)O)C(=O)N[C@@H](CCCNC(=N)N)C(=O)N[C@@H](CO)C(=O)N[C@@H](CC(C)C)C(=O)N[C@@H](C)C(=O)N[C@@H](CCCNC(=N)N)C(=O)N[C@@H](C)C(=O)O)C(C)C)C(C)C)[C@@H](C)O)[C@@H](C)O [R-{D-Arg}-RK-1E14] (H-R[dR]RKELYRMSTYSTFPAGVPVSERSLARA-OH; N-terminus and C-terminus assumed) | –
2 | 28.9 ± 5.2 | CC[C@H](C)[C@H](NC(=O)[C@@H]1CCCN1C(=O)[C@H](CO)NC(=O)[C@H](CO)NC(=O)[C@@H](NC(=O)[C@H](CO)NC(=O)[C@H](CC(C)C)NC(=O)[C@H](C)NC(=O)[C@H](CCCCN)NC(=O)[C@H](CCCNC(=N)N)NC(=O)[C@@H](CCCNC(=N)N)NC(=O)[C@@H](N)CCCNC(=N)N)[C@@H](C)O)C(=O)N1CCC[C@H]1C(=O)N[C@@H](CO)C(=O)N[C@H](C(=O)N1CCC[C@H]1C(=O)N[C@@H](CCC(N)=O)C(=O)N[C@@H](CO)C(=O)N[C@@H](CCC(N)=O)C(=O)N[C@@H](C)C(=O)N[C@@H](CCC(N)=O)C(=O)N1CCC[C@H]1C(=O)N[C@@H](CCC(N)=O)C(=O)N[C@H](C(=O)NCC(=O)N[C@@H](CO)C(=O)NCC(=O)N[C@@H](C)C(=O)N[C@@H](CO)C(=O)O)[C@@H](C)O)C(C)C [R-{D-Arg}-RK- 2F3] (H-R[dR]RKALSTSSPIPSVPQSQAQPQTGSGAS-OH; N-terminus and C-terminus assumed) | 19.6
3 | 89.3 ± 5.49 | Cc1cc(O)cc(C)c1C[C@H](NC(=O)[C@H](N)CCCNC(=N)N)C(=O)N[C@@H](CCCN)C(=O)N[C@@H](Cc1ccccc1)C(=O)N[C@@H](C)C(=O)N[C@@H](CC(C)C)C(=O)N[C@@H](CC(C)C)C(=O)N[C@H](C(=O)N[C@@H](CO)C(=O)NCC(=O)N[C@H](C(=O)N[C@@H](CO)C(=O)N[C@@H](CC(=O)O)C(=O)N1CCC[C@H]1C(=O)N[C@@H](CCCNC(=N)N)C(=O)N[C@@H](C)C(=O)N[C@@H](CCCNC(=N)N)C(=O)N[C@H](C(=O)N[C@H](C(=O)N[C@@H](Cc1ccc(O)cc1)C(=O)NCC(=O)N[C@H](C(=O)N1CCC[C@H]1C(=O)N[C@@H](CO)C(=O)N[C@@H](CC(C)C)C(=O)N[C@@H](Cc1c[nH]c2ccccc12)C(=O)N[C@@H](C)C(=O)N[C@@H](CCCNC(=N)N)C(=O)N[C@@H](CC(C)C)C(=O)O)[C@@H](C)O)[C@@H](C)O)C(C)C)[C@@H](C)O)[C@@H](C)O [D-Arg–Dmt–Orn–Phe -1C11] (H-[dR][Dmt][Orn]FALLTSGTSDPRARVTYGTPSLWARL-OH; N-terminus and C-terminus assumed) | –
4 | – | 2F3 -D-Arg–Dmt–Orn–Phe | 19.6
5 | > 100 | CSCC[C@H](NC(=O)[C@H](CCCNC(=N)N)NC(=O)[C@H](Cc1ccc(O)cc1)NC(=O)[C@H](CC(C)C)NC(=O)[C@H](CCC(=O)O)NC(=O)[C@H](Cc1ccccc1)NC(=O)[C@H](CCCN)NC(=O)[C@H](Cc1c(C)cc(O)cc1C)NC(=O)[C@H](N)CCCNC(=N)N)C(=O)N[C@@H](CO)C(=O)N[C@H](C(=O)N[C@@H](Cc1ccc(O)cc1)C(=O)N[C@@H](CO)C(=O)N[C@H](C(=O)N[C@@H](Cc1ccccc1)C(=O)N1CCC[C@H]1C(=O)N[C@@H](C)C(=O)NCC(=O)N[C@H](C(=O)N1CCC[C@H]1C(=O)N[C@H](C(=O)N[C@@H](CO)C(=O)N[C@@H](CCC(=O)O)C(=O)N[C@@H](CCCNC(=N)N)C(=O)N[C@@H](CO)C(=O)N[C@@H](CC(C)C)C(=O)N[C@@H](C)C(=O)N[C@@H](CCCNC(=N)N)C(=O)N[C@@H](C)C(=O)O)C(C)C)C(C)C)[C@@H](C)O)[C@@H](C)O [D-Arg–Dmt–Orn–Phe-1E14] (H-[dR][Dmt][Orn]FELYRMSTYSTFPAGVPVSERSLARA-OH; N-terminus and C-terminus assumed) | –
6 | 66.5 ± 3.9 | CC(C)C[C@H](NC(=O)[C@H](CCCNC(=N)N)NC(=O)[C@H](C)NC(=O)[C@H](Cc1c[nH]c2ccccc12)NC(=O)[C@H](CC(C)C)NC(=O)[C@H](CO)NC(=O)[C@@H]1CCCN1C(=O)[C@@H](NC(=O)CNC(=O)[C@H](Cc1ccc(O)cc1)NC(=O)[C@@H](NC(=O)[C@@H](NC(=O)[C@H](CCCNC(=N)N)NC(=O)[C@H](C)NC(=O)[C@H](CCCNC(=N)N)NC(=O)[C@@H]1CCCN1C(=O)[C@H](CC(=O)O)NC(=O)[C@H](CO)NC(=O)[C@@H](NC(=O)CNC(=O)[C@H](CO)NC(=O)[C@@H](NC(=O)[C@H](CC(C)C)NC(=O)[C@H](CC(C)C)NC(=O)[C@H](C)NC(=O)[C@H](CCCCN)NC(=O)[C@H](CCCNC(=N)N)NC(=O)[C@@H](CCCNC(=N)N)NC(=O)[C@@H](N)CCCNC(=N)N)[C@@H](C)O)[C@@H](C)O)C(C)C)[C@@H](C)O)[C@@H](C)O)C(=O)O [R-{D-Arg}-RK- 1C11] (H-R[dR]RKALLTSGTSDPRARVTYGTPSLWARL-OH; N-terminus and C-terminus assumed) | –
7 | > 100 | CC[C@H](C)[C@H](NC(=O)[C@@H]1CCCN1C(=O)[C@H](CO)NC(=O)[C@H](CO)NC(=O)[C@@H](NC(=O)[C@H](CO)NC(=O)[C@H](CC(C)C)NC(=O)[C@H](C)NC(=O)[C@H](Cc1ccccc1)NC(=O)[C@H](CCCN)NC(=O)[C@H](Cc1c(C)cc(O)cc1C)NC(=O)[C@H](N)CCCNC(=N)N)[C@@H](C)O)C(=O)N1CCC[C@H]1C(=O)N[C@@H](CO)C(=O)N[C@H](C(=O)N1CCC[C@H]1C(=O)N[C@@H](CCC(N)=O)C(=O)N[C@@H](CO)C(=O)N[C@@H](CCC(N)=O)C(=O)N[C@@H](C)C(=O)N[C@@H](CCC(N)=O)C(=O)N1CCC[C@H]1C(=O)N[C@@H](CCC(N)=O)C(=O)N[C@H](C(=O)NCC(=O)N[C@@H](CO)C(=O)NCC(=O)N[C@@H](C)C(=O)N[C@@H](CO)C(=O)O)[C@@H](C)O)C(C)C [H-(D-Arg)–Dmt–Orn–Phe- 2F3] (H-[dR][Dmt][Orn]FALSTSSPIPSVPQSQAQPQTGSGAS-OH; C-terminus assumed) | –
